Values after ≈ are worked out from the molar mass of the structure shown. Where two headings read alike, the source gives them in different places.
Tests used:
Assay type in all cases: cell-based
Listeria monocytogenes = experiment: MIC agar dilution, micro-organism 15 (11994); conditions: Listeria monocytogenes 11994
Outline: (§1)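 Agar dilution in Isosensitest/CCEY agar with egg yolk and lysed horse blood; compounds as aqueous emulsions (myristyl and lauryl alcohol with 1-methyl-2-pyrrolidone and Tween 20). 1 µL spots of 1/15-diluted 0.5 McFarland suspensions, 37 °C aerobic, read at 22 and 48 h; MIC (mmol/L) is lowest concentration giving <10 colonies.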

Candida glabrata = experiment: MIC agar dilution, micro-organism 20 (3943); conditions: Candida glabrata 3943
Outline: as §1

Enterococcus faecium = experiment: MIC agar dilution, micro-organism 16 (7171); conditions: Enterococcus faecium 7171
Outline: as §1

Bacillus subtilis = experiment: MIC agar dilution, micro-organism 18 (9372); conditions: Bacillus subtilis 9372
Outline: as §1

[1] = test system: Staphylococcus epidermidis; experiment: MIC agar dilution, micro-organism 14 (11047); conditions: Staphylococcus epidermidis 11047
Outline: as §1

MRSA EMRSA 15 21268/98 = experiment: MIC agar dilution, MRSA strain 40; conditions: Staphylococcus aureus
Procedure: (§2) Molar equivalent concentrations were used to allow comparison between compounds of differing molecular mass. Due to weighing difficulties, any compound in solid form was melted in a water bath prior to dilution. To make ten-times strength concentrations, which takes into account agar dilution, 0.0352 mmol of each compound was weighed into plastic universal bottles and 4 mL of sterile distilled water (SDW) was added. To produce a homogenous emulsion the universals were vortexed; once achieved the emulsions were serial diluted by adding 2 mL to 2 mL of SDW.
(§3) For every 100 mL of Isosensitest agar (IST) (CM0471; Oxoid, Basingstoke, England), 3.1 g of the IST powder was added to 100 mL SDW (as per manufacturer's instructions) and sterilised for 15 minutes at 121° C. Once sterilised, the molten agar was cooled to 50° C. in a water-bath. Subsequently 4.8 g of CCEY powder (BC2160; Bioconnections, Wetherby, England), also known as Brazier's medium, was added to 100 mL SDW for every 100 mL of agar needed. This was then sterilised for 15 minutes at 121° C. Once sterilised the molten agar was cooled to 50° C. in a water-bath and 4 mL of egg-yolk emulsion (S2073; TCS Biosciences Ltd, Buckingham, United Kingdom) and 1 mL of lysed defibrinated horse blood (HB035; TCS Biosciences Ltd, Buckingham, United Kingdom) were also added for every 100 mL needed. Horse blood lysis is achieved by dilution to half concentration with SDW; when fully lysed the mixture will turn dark red in colour.
(§4) 18 mL agar was added to each universal and then poured into sterile Petri dishes. This step creates a 1/10 dilution resulting in agar plates of the required strength. Control plates for each set of strains were created by adding 18 mL of agar to 2 mL of SDW.
(§5) Suspensions of each bacterial species were prepared with a density equal to that of a 0.5 McFarland standard using a densitometer. All suspensions were made using sterile distilled water and fresh 18-20 hour cultures. As a 0.5 McFarland standard contains 1.5×10^8 CFU/mL and the multipoint inoculators applies 1 μL spots of liquid, each bacterial suspension was diluted 1/15 (20 μL suspension to 280 μL sterile distilled water).
(§6) Bacterial suspensions were prepared from fresh 18-24 hour cultures as previously described. 1 μL of each strain was inoculated onto all 100 agar plates containing a different chemical concentration and the 2 control plates. This was done using a multipoint inoculator which inoculates 20 strains per plate. All plates were incubated for 22 hours at 37° C. in aerobic conditions.
(§7) Each plate was examined for bacterial growth after 22 and 48 hours, with each being incubated in between examinations. A positive result was recorded as growth of ≧10 colonies. A negative result was recorded as growth of <10 colonies as this is equivalent to 99.9% inhibition. The lowest concentration of chemical that inhibited growth was recorded as the MIC. The results are recorded in Table IV below, where the numbers are quoted in mmol/L.
(§8) Given the positive performance of the ethoxylates of lauryl alcohol in reducing the MIC for a number of the micro-organisms tested, further MIC testing of Laureth-1 [C12E1] through to Laureth-8 [C12E8] was conducted on each of the following: • 10 strains of vancomycin-resistant enterococci (VRE)—listed in Table V below; and • 20 strains of methicillin-resistant Staphylococcus aureus (MRSA)—listed in Table VI.
(§9) The alkanol, alkanol derivatives, agar plates, and inocula were all prepared in the same way as described above.
(§10) The plates were examined in the same manner as described above and the results are recorded in Table VII below, where the numbers are quoted in mmol/L.

MRSA FRA 920 = experiment: MIC agar dilution, MRSA strain 38; conditions: Staphylococcus aureus
Procedure: as §2, §3, §4, §5, §6, §7, §8, §9, §10

[2] = test system: Enterococcus faecalis (VRE) PHLS URINE 2000; experiment: MIC agar dilution, VRE strain 21
Procedure: as §2, §3, §4, §5, §6, §7, §8, §9, §10

[3] = test system: MRSA GER 131/98 (Sger Iidc); experiment: MIC agar dilution, MRSA strain 35; conditions: Staphylococcus aureus
Procedure: as §2, §3, §4, §5, §6, §7, §8, §9, §10

[4] = Nakaseomyces glabratus, 22 h, 22 hrs, read-out: MIC
[5] = Nakaseomyces glabratus, 48 h, 48 hrs, read-out: MIC

SMILES	MIC (Listeria monocytogenes; 22 hrs, read-out: MIC) [µM]	MIC (Listeria monocytogenes; 48 hrs, read-out: MIC) [µM]	MIC (Candida glabrata; [4]) [µM]	MIC (Candida glabrata; [5]) [µM]	MIC (Enterococcus faecium; 22 hrs, read-out: MIC) [µM]	MIC (Enterococcus faecium; 48 hrs, read-out: MIC) [µM]	MIC (Bacillus subtilis; 22 hrs, read-out: MIC) [µM]	MIC (Bacillus subtilis; 48 hrs, read-out: MIC) [µM]	MIC ([1]; 22 hrs, read-out: MIC) [µM]	MIC ([1]; 48 hrs, read-out: MIC) [µM]	MIC (MRSA EMRSA 15 21268/98; 22 hrs) [µM]	MIC (MRSA EMRSA 15 21268/98; 48 hrs) [µM]	MIC (MRSA FRA 920; 22 hrs) [µM]	MIC (MRSA FRA 920; 48 hrs) [µM]	MIC ([2]; 22 hrs) [µM]	MIC ([2]; 48 hrs) [µM]	MIC ([3]; 22 hrs) [µM]	MIC ([3]; 48 hrs) [µM]	also measured
CCCCCCCCCCCCCCCCO [C0, 1-Hexadecanol, reference compound]	> 880	> 880	880 (≈ 213 µg/mL)	> 880	> 880	> 880	> 880	> 880	> 880	> 880	–	–	–	–	–	–	–	–	–
CCCCCCCCCCCCCOCCOCCOCCOCCOCCOCCO [C13E6, polyoxyethylene (6) tridecyl alcohol]	–	–	–	–	–	–	–	–	–	–	–	–	–	–	–	–	–	–	MIC (Listeria monocytogenes; 22 hrs): >880 µM; MIC (Listeria monocytogenes; 48 hrs): >880 µM; MIC (Candida glabrata; 22 hrs): >880 µM; MIC (Candida glabrata; 48 hrs): >880 µM; MIC (Enterococcus faecium; 22 hrs): >880 µM; MIC (Enterococcus faecium; 48 hrs): >880 µM; MIC (Bacillus subtilis; 22 hrs): 110 µM (≈ 51.1 µg/mL); MIC (Bacillus subtilis; 48 hrs): 110 µM (≈ 51.1 µg/mL); MIC ([1]; 22 hrs): 110 µM (≈ 51.1 µg/mL); MIC ([1]; 48 hrs): 110 µM (≈ 51.1 µg/mL)
CCCCCCCCCCCCOCCO [L1, Ethylene Glycol Monododecyl Ether]	440 (≈ 101 µg/mL)	880 (≈ 203 µg/mL)	220 (≈ 50.7 µg/mL)	220 (≈ 50.7 µg/mL)	> 880	> 880	440 (≈ 101 µg/mL)	440 (≈ 101 µg/mL)	220 (≈ 50.7 µg/mL)	220 (≈ 50.7 µg/mL)	220 (≈ 50.7 µg/mL)	220 (≈ 50.7 µg/mL)	220 (≈ 50.7 µg/mL)	220 (≈ 50.7 µg/mL)	220 (≈ 50.7 µg/mL)	220 (≈ 50.7 µg/mL)	220 (≈ 50.7 µg/mL)	220 (≈ 50.7 µg/mL)	–
CCCCCCCCCCCCOCCOCCO [L2, Diethylene Glycol Monododecyl Ether]	220 (≈ 60.4 µg/mL)	220 (≈ 60.4 µg/mL)	110 (≈ 30.2 µg/mL)	110 (≈ 30.2 µg/mL)	> 880	> 880	110 (≈ 30.2 µg/mL)	220 (≈ 60.4 µg/mL)	110 (≈ 30.2 µg/mL)	110 (≈ 30.2 µg/mL)	110 (≈ 30.2 µg/mL)	110 (≈ 30.2 µg/mL)	110 (≈ 30.2 µg/mL)	110 (≈ 30.2 µg/mL)	220 (≈ 60.4 µg/mL)	220 (≈ 60.4 µg/mL)	220 (≈ 60.4 µg/mL)	220 (≈ 60.4 µg/mL)	–
CCCCCCCCCCCCOCCOCCOCCO [L3, Triethylene Glycol Monododecyl Ether]	110 (≈ 35 µg/mL)	220 (≈ 70.1 µg/mL)	110 (≈ 35 µg/mL)	110 (≈ 35 µg/mL)	110 (≈ 35 µg/mL)	110 (≈ 35 µg/mL)	110 (≈ 35 µg/mL)	110 (≈ 35 µg/mL)	≤ 50	≤ 50	110 (≈ 35 µg/mL)	110 (≈ 35 µg/mL)	55 (≈ 17.5 µg/mL)	55 (≈ 17.5 µg/mL)	220 (≈ 70.1 µg/mL)	220 (≈ 70.1 µg/mL)	110 (≈ 35 µg/mL)	110 (≈ 35 µg/mL)	–
CCCCCCCCCCCCOCCOCCOCCOCCO [L4, Tetraethylene Glycol Monododecyl Ether]	110 (≈ 39.9 µg/mL)	220 (≈ 79.8 µg/mL)	110 (≈ 39.9 µg/mL)	110 (≈ 39.9 µg/mL)	220 (≈ 79.8 µg/mL)	220 (≈ 79.8 µg/mL)	110 (≈ 39.9 µg/mL)	110 (≈ 39.9 µg/mL)	110 (≈ 39.9 µg/mL)	110 (≈ 39.9 µg/mL)	55 (≈ 19.9 µg/mL)	55 (≈ 19.9 µg/mL)	55 (≈ 19.9 µg/mL)	55 (≈ 19.9 µg/mL)	110 (≈ 39.9 µg/mL)	110 (≈ 39.9 µg/mL)	110 (≈ 39.9 µg/mL)	110 (≈ 39.9 µg/mL)	–
CCCCCCCCCCCCOCCOCCOCCOCCOCCO [L5, Pentaethylene Glycol Monododecyl Ether]	110 (≈ 44.7 µg/mL)	220 (≈ 89.5 µg/mL)	110 (≈ 44.7 µg/mL)	220 (≈ 89.5 µg/mL)	220 (≈ 89.5 µg/mL)	220 (≈ 89.5 µg/mL)	110 (≈ 44.7 µg/mL)	110 (≈ 44.7 µg/mL)	110 (≈ 44.7 µg/mL)	110 (≈ 44.7 µg/mL)	110 (≈ 44.7 µg/mL)	110 (≈ 44.7 µg/mL)	110 (≈ 44.7 µg/mL)	110 (≈ 44.7 µg/mL)	110 (≈ 44.7 µg/mL)	110 (≈ 44.7 µg/mL)	110 (≈ 44.7 µg/mL)	110 (≈ 44.7 µg/mL)	–
CCCCCCCCCCCCOCCOCCOCCOCCOCCOCCO [L6, Hexaethylene Glycol Monododecyl Ether]	110 (≈ 49.6 µg/mL)	110 (≈ 49.6 µg/mL)	220 (≈ 99.1 µg/mL)	220 (≈ 99.1 µg/mL)	440 (≈ 198 µg/mL)	220 (≈ 99.1 µg/mL)	110 (≈ 49.6 µg/mL)	110 (≈ 49.6 µg/mL)	110 (≈ 49.6 µg/mL)	110 (≈ 49.6 µg/mL)	110 (≈ 49.6 µg/mL)	110 (≈ 49.6 µg/mL)	220 (≈ 99.1 µg/mL)	220 (≈ 99.1 µg/mL)	220 (≈ 99.1 µg/mL)	220 (≈ 99.1 µg/mL)	110 (≈ 49.6 µg/mL)	110 (≈ 49.6 µg/mL)	–
